Experimental data published in ChEMBL document CHEMBL1149506, “Synthesis and in vitro biological evaluation of aryl boronic acids as potential inhibitors of factor XIa” (Bioorg Med Chem Lett, 2006).
Structures can show the parent of a compound that is named as a salt.

Columns and labels:
Coagulation factor XI = Coagulation factor XI (Homo sapiens, UniProt P03951); experiment: Inhibition of f11a
Prothrombin = Prothrombin (Homo sapiens, UniProt P00734); experiment: Inhibition of thrombin
Trypsin = Trypsin (Homo sapiens, UniProt P07477+P07478+P35030); experiment: Inhibition of trypsin; type: protein assay
Homo sapiens [1] = organism: Homo sapiens; experiment: Selectivity for f11a over trypsin
Coagulation factor X = Coagulation factor X (Homo sapiens, UniProt P00742); experiment: Inhibition of f10a
Homo sapiens [2] = organism: Homo sapiens; experiment: Selectivity for f11a over f10a

Sequence of Coagulation factor X (P00742 41-179 limits assumed): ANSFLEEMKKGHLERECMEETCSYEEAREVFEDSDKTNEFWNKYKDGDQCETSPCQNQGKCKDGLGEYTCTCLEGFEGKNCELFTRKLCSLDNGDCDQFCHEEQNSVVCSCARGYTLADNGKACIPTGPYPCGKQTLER
Sequence of Coagulation factor X (P00742 235-488 limits assumed): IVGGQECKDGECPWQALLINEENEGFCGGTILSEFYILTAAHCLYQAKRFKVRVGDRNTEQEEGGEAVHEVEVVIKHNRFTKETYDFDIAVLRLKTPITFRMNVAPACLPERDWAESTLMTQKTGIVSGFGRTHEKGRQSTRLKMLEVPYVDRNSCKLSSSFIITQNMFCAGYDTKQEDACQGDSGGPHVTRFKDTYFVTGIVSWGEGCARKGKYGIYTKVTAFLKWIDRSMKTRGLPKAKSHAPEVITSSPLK
Sequence of Coagulation factor XI (P03951 19-387 limits assumed): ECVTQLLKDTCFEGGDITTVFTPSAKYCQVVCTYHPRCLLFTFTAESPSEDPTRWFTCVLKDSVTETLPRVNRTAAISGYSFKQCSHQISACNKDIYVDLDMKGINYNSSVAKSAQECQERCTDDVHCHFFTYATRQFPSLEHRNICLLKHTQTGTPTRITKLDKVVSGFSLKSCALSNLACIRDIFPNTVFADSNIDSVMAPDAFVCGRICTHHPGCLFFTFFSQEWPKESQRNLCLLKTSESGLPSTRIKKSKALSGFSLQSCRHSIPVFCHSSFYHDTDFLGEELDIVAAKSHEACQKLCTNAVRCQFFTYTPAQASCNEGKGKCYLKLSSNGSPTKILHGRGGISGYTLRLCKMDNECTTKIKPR
Sequence of Coagulation factor XI (P03951 388-625 limits assumed): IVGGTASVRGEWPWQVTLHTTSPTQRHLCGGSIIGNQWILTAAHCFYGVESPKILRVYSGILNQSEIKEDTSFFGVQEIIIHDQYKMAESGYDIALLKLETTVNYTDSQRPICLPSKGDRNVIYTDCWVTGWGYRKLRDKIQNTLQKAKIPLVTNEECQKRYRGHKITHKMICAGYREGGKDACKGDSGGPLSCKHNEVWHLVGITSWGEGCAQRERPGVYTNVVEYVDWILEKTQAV

| SMILES | IC50 (Coagulation factor XI) | IC50 (Prothrombin) | IC50 (Trypsin) | Selectivity ratio (Homo sapiens [1]) | IC50 (Coagulation factor X) | Selectivity ratio (Homo sapiens [2]) |
| --- | --- | --- | --- | --- | --- | --- |
| CC1(C)OB(c2ccc(C(NC(=N)N)OC(=O)c3cccnc3)cc2)OC1(C)C.O=C(O)C(F)(F)F (stereo not given) | 1.4 µM | 12.3 µM | > 200 µM | 200 | 43.6 µM | 30 |
| N=C(N)c1ccccc1 [BENZAMIDINE HYDROCHLORIDE] | 120 µM | – | – | – | – | – |
| CC1(C)OB(c2ccc(CCN=C(N)N)cc2)OC1(C)C.O=C(O)C(F)(F)F | 7.3 µM | 30.8 µM | 20.3 µM | 3 | 175 µM | 25 |
| CC1(C)OB(c2ccc(NC(=N)N)cc2)OC1(C)C.O=C(O)C(F)(F)F | 5.9 µM | 5.5 µM | 2.3 µM | – | 129 µM | – |
| NCc1ccc(B(O)O)cc1 | 77.3 µM | – | – | – | – | – |
| CC1(C)OB(c2ccc(CN=C(N)N)cc2)OC1(C)C | 24.7 µM | 129 µM | > 200 µM | 10 | > 200 µM | 10 |
| N=C(N)NCc1ccc(B(O)O)cc1.O=C(O)C(F)(F)F | 22 µM | 146 µM | > 200 µM | 10 | > 200 µM | 10 |
